How the values were obtained:
[1] = pEEG deep learning drug class classifier; type: in vivo; conditions: classifier trained with a set that did not include the drug, FIG. 25
Excerpt: Briefly, the network may be based on a bidirectional Long Short-Term Memory (LSTM, 32 hidden units) layer, two fully connected layers (“elu and “softmax” activations), batch normalization and dropout layers. The model may be trained using cross-entropy loss function and “adam” optimizer, for at least 30-50 epochs. The last layer of the model may be a dense layer, which may provide probabilities for more than a dozen drug classes.
In some embodiments, to improve the robustness of the predictive model, independent implementations of a general model architecture may be built by randomly initializing the weights for the RNN. Final predictions may be derived from the model with highest accuracy, or from the average such as the median or mean results from all trained models. To check the accuracy of the resulting model system, different cross validation approaches may be used such as a n-samples-out, or n-doses-out, and/or a whole-drug-out, where an n-samples subset, an n-doses subset, and/or a whole drug, respectively, may be systematically removed from the training dataset, and the rest of the drugs may be used for training a new model. The excluded data may then be used for model validation as a test set. Model prediction may be done at a sample level, so as to get a prediction for a given drug-dose. […]

[2] = SmartCube / behavioral platform total activity and Class signature; type: in vivo
Excerpt: In some embodiments, one or more techniques described herein may quantify at least one activity score that may be quantified based on a discriminability score between at least two datasets, where the discriminability score may refer to an accuracy of a classifier, or a quantity derived therefrom. At least one dataset is a control group. In some embodiments, one or more techniques described herein may quantify at least one similarity value, which is the complement of the at least one activity value, where at least two groups are compared.
In some embodiments, one or more techniques described herein may calculate the activity score between the two groups using, for example, without limitation, a binary machine learning classifier. In some embodiments, a discriminability score of the at least two groups, as assessed by the classifier, may be used as the at least one activity score, representing how phenotypically different the two groups are. For example, the at least two groups may refer to a treatment group and a vehicle group associated with the at least two datasets.
In some embodiments, one or more techniques described herein may utilize a machine learning algorithm to perform the following steps: obtaining a plurality of subsamples, where a number, k, of iterations of the plurality of subsamples of a larger group match sample size n of a smaller group. […]

[3] = psychedelic-related behaviors (HTR, ESH, ELO) in behavioral platform videos; type: in vivo, mice
Excerpt: FIG. 71 illustrates a response curve for R-(−)-4-iodo-2,5-dimethoxyamphetamine (DOI), showing anxiolytic, another therapeutic signal, and the head twitch response (HTR) in accordance with one or more embodiments of the present disclosure. FIG. 71 represents a signature of DOI in a behavioral platform, where multiple classes can be collapsed into a few classes of interest. For example, multiple classes can be collapsed into five classes of interest for simplicity.
In some embodiments, the first step may be to generate a collection of ground-truth examples by manually identifying features corresponding to behaviors of interest (e.g., using a labelling software or platform to add labels identifying such features). Each experimental session can be recorded in terms of precise start and end frame which can set the predefined duration of the experimental session. For manual identification purposes, the system may use a top camera view, at a 50% slower viewing speed, although other angles from the other cameras and other sensors such as piezoelectric and thermal sensors may also be used, and the resulting data integrated. Class analysis (e.g., FIG. 71), on the other hand, may include data acquired from all sensors of a behavioral platform.
The disclosed embodiments can extract behavioral features corresponding to exemplary behaviors. The disclosed embodiments are not limited to any particular implementation of these features. In some embodiments, a behavioral feature can be implemented as a time-stamped indication that a behavior occurred at that time, or a Boolean value in a time series indicating the occurrence of a behavior. In some embodiments, a training dataset including observational data and corresponding, manually identified features can be used to train the machine learning classifier.
FIG. 76 illustrates graphs illustrating a quantification of psychedelic-related behaviors detected in behavioral platform videos: ear scratch with hind paw (ESH), head twitch response (HTR), and elongation-contraction (ELO) for LSD and DOI at two doses in accordance with one or more embodiments of the present disclosure. FIG. 76 indicates a number of occurrences of HTRs, ESH, and ELOs, in behavioral platform videos of mice treated with DOI, LSD or vehicle, in triplicates, were recorded during the periods of rest for a total of 12 minutes for each subject.

[4] = SmartCube diagonal index (DD) similarity ranking and psychedelic profile; type: in vivo; conditions: ranked among 90 reference drugs
Excerpt: The similarity score for each of the dose-dose pairs of the T and R drugs was computed and used to calculate the diagonal index for each T-R drug pair or DDTiRj. For each Ti drug, the Rj drugs were then ranked by the corresponding DDTiRj.

[5] = eye temperature by automated thermographic system of behavioral platform; type: in vivo, mice; conditions: various doses, FIG. 39
Excerpt: In some embodiments, with regard to image calibration, in an experimental session, actual Peltier temperatures may be logged and saved along with the thermal camera video. The logged Peltier temperatures in Celsius can be paired to the optical density (OD) levels measured at the two Peltier ROIs in each corresponding frame, so that a linear calibration curve can be used to convert the OD of measured eye ROIs to degrees Celsius.
In some embodiments, the subject body, such as a mouse, can be segmented based on the optical density distribution on each frame. The contour of the mouse can be masked by finding the largest eight-connected objects in the binarized image as shown in FIG. 36. […] The size of the eye region relative to the mask and shape properties such as ‘Eccentricity’ (ratio of the distance between the foci of the ellipse and its major axis length) and ‘Solidity’ (proportion of the pixels in the convex hull that are also in the region, computed as Area/ConvexArea) can be measured to filter out false positives, when those parameters may be outside of the range learned from manually annotated ground truth examples.
In some embodiments, with regard to feature extraction, the average OD of automatically detected eye ROIs can be converted to Celsius based on the calibration curve. […]

[6] = test system: Q175 heterozygous (HET) mice model of Huntington Disease; test: DBSA query with Q175 HET target signature; type: in vivo; conditions: Q175 HET at 6 months vs WT
Excerpt: In some embodiments, illustrative computing devices of present disclosure can be programmed with one or more techniques of the present disclosure to screen active reference compounds against an animal model of a neurodegenerative disease. As an example, in an application of DBSA, the Q175 heterozygous (HET) mice model of Huntington Disease was used to generate a target signature. Male and female cohorts of the Q175 HET model mice at 6 months were compared against the associated wild type (WT) controls. The DBSA Target signature model for the Q175 HET at 6 months is, for example, illustrated in FIG. 56. The target signature was used to query a database containing list signatures for reference compounds profiled at multiple doses.
(§1) Of interest was the identification of the atypical antidepressant tianeptine, currently not used for the treatment of HD in the clinic. […] A control group of WT mice was treated equally with saline. […] The beneficial effect of tianeptine was quantified using DRFA, which transforms the original subject feature profile to a non-redundant, decorrelated ranked 2D features space. The non-redundant decorrelated ranked features space was used to calculate the discrimination between control (WT treated with saline) and disease group (Q175 HET group treated with saline). The disease group (Q175 HET) treated with tianeptine was then projected onto this 2D space and its proximity to the control group was calculated.

[7] = DBSA query with scopolamine target signature; type: in vivo
Excerpt: In some embodiments, illustrative computing devices of the present disclosure can be programmed with one or more techniques of the present disclosure to identify a novel cognitive enhancer compound by querying a large library of compounds profiled in by a behavioral platform. This example is based on a hypothesis that compounds with a drug-induced behavioral data profile that is reversed to that of scopolamine, which impairs cognition, are potentially cognitive enhancers. Other ways to impair cognition, such as other drugs or genetic manipulations, can be used to generate similar hypotheses.
The target signature was used to query a library of list signatures associated with active library and reference compounds to rank the compounds by their capacity to reverse the behavioral response to scopolamine.

Q175 HET mice = test: treatment of Q175 HET mice, recovery quantified using DRFA; type: in vivo; conditions: 20 mg/kg, FIG. 62
Procedure: as §1

[8] = periods of rest, total 12 minutes per subject, vs vehicle, two doses, FIG. 76

Compound: CN(C)CCC=C1c2ccccc2CCc2ccccc21 [Amitriptyline]
- therapeutic class signature by pEEG classifier [1]: clean antidepressant signal

Compound: COc1cc(C[C@@H](C)N)c(OC)cc1I [DOI, R-(−)-4-iodo-2,5-dimethoxyamphetamine]
- class signal of behavioral platform classifier ([2]; FIG. 71, classes collapsed into five classes): predominant anxiolytic therapeutic signal
- head twitch response (HTR) dose-response ([3]; FIG. 71, two doses): high at both doses
- number of occurrences of HTRs [3, 8]: most robust increase
- number of occurrences of ear scratches (ESH) [3, 8]: most robust increase

Compound: CCN(CC)C(=O)[C@@H]1C=C2c3cccc4[nH]cc(c34)C[C@H]2N(C)C1 [LSD, lysergic acid diethylamide]
- rank of diagonal index DDTT (similarity of a second run to a previous run of the same drug) [4]: very high
- total activity as a function of dose ([2]; calculated against vehicle control, activity rescaled 0% to 100%, threshold 70%, FIG. 64): only the 3 mg/kg and 5 mg/kg being different from vehicle in a statistically significant manner
- number of occurrences of ear scratches (ESH) [3, 8]: did not result in occurrences of ear scratches
- number of occurrences of elongation-contraction (ELO) [3, 8]: significant increase in the number of ELOs

Compound: CNC(C)Cc1ccc2c(c1)OCO2 (centres unmarked) [MDMA, 3,4-methylenedioxymethamphetamine]
- eye temperature [5]: dose-dependent increase of eye temperature

Compound: CC(NC(C)(C)C)C(=O)c1cccc(Cl)c1 (centres unmarked) [bupropion]
- therapeutic class signature by pEEG classifier [1]: more stimulant profile
- DBSA prediction against Q175 HET target signature [6]: top predictions

Compound: CN1C(=O)CN=C(c2ccccc2)c2cc(Cl)ccc21 [diazepam]
- rank of diagonal index DDTT (similarity of a second run to a previous run of the same drug) [4]: third out of 90

Compound: COc1cc2c(cc1OC)C(=O)C(CC1CCN(Cc3ccccc3)CC1)C2 (centres unmarked) [donepezil]
- DBSA reverse list signature to scopolamine target signature ([7]; FIG. 60): among the top reverse list signature predictions

Compound: COC(=O)C(c1ccccc1)C1CCCCN1 (centres unmarked) [methylphenidate]
- DBSA prediction against Q175 HET target signature [6]: top predictions

Compound: NC(=O)C[S+]([O-])C(c1ccccc1)c1ccccc1 (centres unmarked) [modafinil]
- DBSA prediction against Q175 HET target signature [6]: top predictions

Compound: CN1[C@@H]2C[C@@H](OC(=O)[C@H](CO)c3ccccc3)C[C@H]1[C@@H]1O[C@@H]12 [scopolamine]
- DBSA similarity to scopolamine target signature ([7]; FIG. 59, at a different dose than the one used for the DBSA model): among the most similar compounds

Compound: CN1c2ccccc2C(NCCCCCCC(=O)O)c2ccc(Cl)cc2S1(=O)=O (centres unmarked) [tianeptine]
- rescue of behavioral phenotype of Q175 HET mice (Q175 HET mice; acutely): significantly rescued the behavioral phenotype
- rescue of behavioral phenotype of Q175 HET mice (Q175 HET mice; chronically (4-week regimen)): significantly rescued the behavioral phenotype
- DBSA prediction against Q175 HET target signature [6]: novel prediction

From patent US20250062040A1, “COMPUTER-BASED SYSTEMS FOR ACQUIRING AND ANALYZING OBS[…] DATA” (priority 2021, published 2025)
